Assay results: paper PMC9408872, “Harmicens, Novel Harmine and Ferrocene Hybrids: Design, Synthesis and Biological Activity” (International Journal of Molecular Sciences, 2022)
Read-outs that look alike come from different tables or passages of the source.

Experiments:
[1] = test system: Hek293T (embryonic kidney cells); assay: MTT cytotoxicity assay, Hek293T; format: cell-based, human; details: 72 h, read-out: IC50 Hek293T
Protocol: (§1) The parent compound harmine, as well as the reference drug 5-fluorouracil, were used as positive controls.
(§2) The experiments were carried out on five human cell lines purchased from American Type Culture Collection (ATCC): HepG2 (hepatocellular carcinoma; ATCC® HB-8065™), SW620 (colorectal adenocarcinoma; ATCC® CCL-227™), HCT116 (colorectal carcinoma; ATCC® CCL-247™), MCF-7 (breast adenocarcinoma; ATCC® HTB-22™), and Hek293T (embryonic kidney cells; ATCC® CRL-3216™). All cell lines were cultured as monolayers and maintained in Dulbecco’s Modified Eagle Medium (DMEM) (Capricorn Scientific, Ebsdorfergrund, Germany) supplemented with 10% fetal bovine serum (FBS) (Capricorn Scientific, Ebsdorfergrund, Germany), 100 U/mL penicillin, and 100 µg/mL streptomycin (Capricorn Scientific, Ebsdorfergrund, Germany) in a humidified atmosphere with 5% CO2 at 37 °C. Cells were seeded in 96-well plates (Corning, Durham, NC, USA) at 5000–7000 cells per well (depending on the cell-doubling time of a specific cell line) in 0.1 mL media and cultured for 24 h. The next day, the medium was aspirated, and cells were treated for 72 h. Only the compounds that led to more than a 50% reduction in mitochondrial metabolic activity at a concentration of 50 µM were selected for further analysis. The following concentrations of selected compounds were used: 25, 10, 5, and 1 µM. Working dilutions were freshly prepared on the day of the testing. A fresh growth medium was added to untreated control cells, which were defined as 100% viable. DMSO (0.13%) in DMEM was considered a negative control. 5-Fluorouracil (5-FU) and harmine were used as positive controls. At the end of treatment, the medium was removed, and cells were incubated for 1 h with 0.5 mg/mL MTT (Abcam, Cambridge, MA, USA) dissolved in serum-deprived DMEM. The MTT-containing medium was then removed, and 0.1 mL isopropanol was added per well to lyse cells and dissolve formazan. The optical density was measured at 570 nm using a microplate reader (VICTOR3, PerkinElmer, Waltham, MA, USA). Each test point was performed in triplicate. The absorbance was directly proportional to the cell viability. The IC50 values (concentration required to decrease viability by 50%) were calculated by using nonlinear regression on the sigmoidal dose–response plots and are expressed as mean ± SD.

[2] = test system: P. falciparum Dd2 (multidrug-resistant) erythrocytic stages; assay: In vitro drug sensitivity assay (HRP2-ELISA) against erythrocytic stages, PfDd2; format: cell-based; details: for IC50: read-out: IC50 PfDd2
Protocol: (§3) The in vitro activity of harmicens 20–37 against the erythrocytic stages of CQ-sensitive (Pf3D7) and multidrug-resistant (PfDd2) P. falciparum strains was evaluated following a previously described method (Table 1).
(§4) The antiplasmodial activity of harmicens 20–37 was evaluated against two strains of P. falciparum (3D7—CQ-sensitive, Dd2—multidrug-resistant) as previously described using the histidine-rich protein 2 (HRP2) assay. Briefly, 96-well plates were pre-coated with the tested compounds in a three-fold dilution before ring-stage parasites were added to complete the culture medium at a hematocrit of 1.5% and parasitemia of 0.05%. After three days of incubation at 37 °C, 5% CO2, and 5% oxygen, plates were frozen until HRP2-ELISA analysis. All compounds were evaluated in duplicate in at least two independent experiments. The IC50 was determined using a nonlinear regression analysis of log concentration–response curves using the drc-package v0.9.0 of R v2.6.1 (R Foundation, Vienna, Austria).

[3] = test system: MCF-7 (breast adenocarcinoma); assay: cells; details: for IC50: read-out: IC50 MCF-7; for SI (MCF-7): selectivity index: ratio of IC50 Hek293T to IC50 MCF-7
Protocol: as §1, §2

[4] = test system: HCT116 (colorectal carcinoma); assay: MTT cytotoxicity assay, HCT116; format: cell-based, human; details: for IC50: read-out: IC50 HCT116; for SI (HCT116): selectivity index: ratio of IC50 Hek293T to IC50 HCT116
Protocol: as §1, §2

[5] = test system: HepG2 (hepatocellular carcinoma); assay: MTT cytotoxicity assay, HepG2; format: cell-based, human; details: read-out: IC50 HepG2
Protocol: as §1, §2

[6] = test system: P. falciparum 3D7 (CQ-sensitive) erythrocytic stages; assay: In vitro drug sensitivity assay (HRP2-ELISA) against erythrocytic stages, Pf3D7; format: cell-based; details: read-out: IC50 Pf3D7
Protocol: as §3, §4

[7] = test system: SW620 (colorectal adenocarcinoma); assay: MTT cytotoxicity assay, SW620; format: cell-based, human; details: read-out: IC50 SW620
Protocol: as §1, §2

[8] = noncancer cell line, MTT, mean ± SD
[9] = multidrug-resistant strain, three days incubation, mean ± SD
[10] = CQ-sensitive strain, three days incubation, mean ± SD
[11] = Plasmodium falciparum, DD2, 72 h

Row | Compound | IC50 [1, 8] | IC50 [2, 9] | IC50 ([3]; 72 h, MTT, mean ± SD) | SI (MCF-7) [3] | IC50 ([4]; 72 h, MTT, mean ± SD) | SI (HCT116) [4] | IC50 ([5]; 72 h, MTT, mean ± SD) | IC50 [6, 10] | IC50 ([7]; 72 h, MTT, mean ± SD) | further results
1 | 9-((1-(Ferocenylmethyl)-1H-1,2,3-triazol-4-yl)methyl)-7-methoxy-1-methyl-9H-pyrido[3,4-b]indole [Compound 29] | > 50 µM | 2.91 ± 0.05 µM | > 50 µM | >1 | 14.6 ± 3.7 µM | >3.4 | > 50 µM | 2.12 ± 0.81 µM | > 50 µM | –
2 | CCN(CC)CCCC(C)Nc1ccnc2cc(Cl)ccc12 (stereo not drawn) [CQ, chloroquine, reference compound] | – | – | – | – | – | – | – | – | – | IC50 [2, 11]: 0.29 ± 0.1 µM; IC50 ([6]; Plasmodium falciparum, 3D7, 72 h): 0.004 ± 0.002 µM
3 | O=c1[nH]cc(F)c(=O)[nH]1 [Compound 5-FU, 5-fluorouracil, reference compound] | – | – | – | 0.3 | – | 1.6 | – | – | – | IC50 ([1]; Homo sapiens, HEK-293T, noncancer cell line, MTT, mean ± SD): 8.1 ± 0.8 µM; IC50 ([3]; Homo sapiens, MCF7, 72 h): 23.9 ± 5.7 µM; IC50 ([4]; Homo sapiens, HCT-116, 72 h, MTT, mean ± SD): 5.2 ± 2.8 µM; IC50 ([5]; Homo sapiens, HepG2, 72 h, MTT, mean ± SD): 5.5 ± 0.6 µM; IC50 ([7]; Homo sapiens, SW-620, 72 h, MTT, mean ± SD): 9.4 ± 0.3 µM
4 | [Fe+2].c1cc[cH-]c1.c1ccc2c(c1)[nH]c1c(Cn3cc(-[c-]4cccc4)nn3)nccc12 [Compound 20, 1-((4-Ferrocenyl-1H-1,2,3-triazol-1-yl)methyl)-9H-pyrido[3,4-b]indole] | > 50 µM | 11.2 ± 2.23 µM | 39.4 ± 7.9 µM | >1.3 | 29.4 ± 4.6 µM | >1.7 | 43.9 ± 1.1 µM | 9.23 ± 1.96 µM | > 50 µM | –
5 | Cc1nc(Cn2cc(-[c-]3cccc3)nn2)cc2c1[nH]c1ccccc12.[Fe+2].c1cc[cH-]c1 [Compound 21, 1-Methyl-3-((4-ferrocenyl-1H-1,2,3-triazol-1-yl)methyl)-9H-pyrido[3,4-b]indole] | > 50 µM | 6.06 ± 1.36 µM | 17.7 ± 0.6 µM | >2.8 | 8.3 ± 1.4 µM | >6 | > 50 µM | 7.14 ± 0.38 µM | 19.7 ± 1.9 µM | –
6 | Cc1nccc2c1[nH]c1ccc(OCCn3cc(-[c-]4cccc4)nn3)cc12.[Fe+2].c1cc[cH-]c1 [Compound 22, 1-Methyl-6-(2-(4-ferrocenyl-1H-1,2,3-triazol-1-yl)ethoxy)-9H-pyrido[3,4-b]indole] | 7.3 ± 2.8 µM | 0.89 ± 0.01 µM | 6.9 ± 0.5 µM | 1.1 | 9 ± 0.7 µM | 0.8 | 8.4 ± 0.9 µM | 0.35 ± 0.19 µM | 6.5 ± 0.7 µM | –
7 | Cc1nccc2c1[nH]c1cc(OCCn3cc(-[c-]4cccc4)nn3)ccc12.[Fe+2].c1cc[cH-]c1 [Compound 23, 1-Methyl-7-(2-(4-ferrocenyl-1H-1,2,3-triazol-1-yl)ethoxy)-9H-pyrido[3,4-b]indole] | 17.1 ± 1.8 µM | 1.02 ± 0.52 µM | 8 ± 0.2 µM | 2.1 | 38.6 ± 2.8 µM | 0.4 | 9.5 ± 0.5 µM | 0.15 ± 0.05 µM | 7.6 ± 0.1 µM | –
8 | COc1ccc2c3ccnc(C)c3n(CCn3cc(-[c-]4cccc4)nn3)c2c1.[Fe+2].c1cc[cH-]c1 [Compound 24, 7-Methoxy-1-methyl-9-(2-(4-ferrocenyl-1H-1,2,3-triazol-1-yl)ethyl)-9H-pyrido[3,4-b]indole] | > 50 µM | 2.31 ± 0.29 µM | > 50 µM | >1 | > 50 µM | >1 | > 50 µM | 1.35 ± 0.28 µM | > 50 µM | –
9 | [Fe+2].c1cc[cH-]c1.c1ccc2c(c1)[nH]c1c(-c3cn(C[c-]4cccc4)nn3)nccc12 [Compound 25, 1-(1-(Ferrocenylmethyl)-1H-1,2,3-triazol-4-yl)-9H-pyrido[3,4-b]indole] | > 50 µM | 4.37 ± 1.79 µM | > 50 µM | >1 | 7.6 ± 0.5 µM | >6.6 | > 50 µM | 3.62 ± 1.08 µM | 23.1 ± 6.4 µM | –
10 | Cc1nc(-c2cn(C[c-]3cccc3)nn2)cc2c1[nH]c1ccccc12.[Fe+2].c1cc[cH-]c1 [Compound 26, 3-(1-(Ferrocenylmethyl)-1H-1,2,3-triazol-4-yl)-1-methyl-9H-pyrido[3,4-b]indole] | 46.5 ± 1 µM | 4.02 ± 0.61 µM | 3.7 ± 0.2 µM | 12.6 | 35.2 ± 4.7 µM | 1.3 | 12.3 ± 5 µM | 2.63 ± 0.27 µM | 3.8 ± 0.4 µM | activity against MCF-7 relative to 5-FU (fold stronger) [3]: 3–6.5 fold
11 | Cc1nccc2c1[nH]c1ccc(OCc3cn(C[c-]4cccc4)nn3)cc12.[Fe+2].c1cc[cH-]c1 [Compound 27, 6-((1-(Ferrocenylmethyl)-1H-1,2,3-triazol-4-yl)methoxy)-1-methyl-9H-pyrido[3,4-b]indole] | 43 ± 8.6 µM | 1.09 ± 0.01 µM | 6.8 ± 0.2 µM | 6.3 | > 50 µM | < 0.9 | 17 ± 0.3 µM | 0.31 ± 0.01 µM | 8.1 ± 0.2 µM | activity against MCF-7 relative to 5-FU (fold stronger) [3]: 3–6.5 fold
12 | COc1ccc2c(c1)[nH]c1c(C)nccc12 [HAR, harmine] | – | – | – | – | – | – | – | – | – | IC50 ([1]; Homo sapiens, HEK-293T): 12.6 ± 0.8 µM; IC50 [2, 11]: > 27.7 µM; IC50 PfDd2 [2, 9]: not active at all; IC50 ([3]; Homo sapiens, MCF7, 72 h): 13.5 ± 1.1 µM; IC50 ([4]; Homo sapiens, HCT-116, 72 h): 4 ± 0.8 µM; IC50 ([5]; Homo sapiens, HepG2, 72 h): 18.7 ± 0.8 µM; IC50 ([7]; Homo sapiens, SW-620, 72 h): 4.7 ± 0.6 µM
